Here are results for three molecules from US20220160849A1, “CANCER VACCINE FORMULATION” (MIE UNIVERSITY, priority 2019, published 2022).

This experiment deals with mouse melanoma B16F10 cell line expressing TRP2, TRP1, and gp100. As to the kind of experiment: Mouse tumor growth test, mouse melanoma B16F10. The experiment is classed as in vivo, C57BL/6 mouse. The protocol:
A mouse fibrosarcoma CMS5a cell line expressing mERK2, a mouse colorectal cancer cell CT26 cell line expressing AH1 and gp70, or a mouse melanoma B16F10 cell line expressing TRP2, TRP1, and gp100 was subcutaneously transplanted. The CMS5a cell line and the CT26 cell line were each subcutaneously transplanted in an amount of 1×10^6 cultured cells/100 μL/individual to each BALB/c mouse (female: body weight: 15 to 25 g). The B16F10 cell line was subcutaneously transplanted in an amount of […] cultured cells/100 μL/individual to each C57BL/6 mouse (female; body weight: 15 to 25 g). Then, tumor volumes were measured over time.
Each sample of Table 17 was subcutaneously administered with the frequency described in Table 17 to the mouse melanoma B16F10-bearing mice prepared by the method described in Example 5 to conduct a mouse tumor growth test.
Each sample of Table 20 was subcutaneously administered with the frequency described in Table 20 to the mouse melanoma B16F10-bearing mice prepared by the method described in Example 5 to conduct a mouse tumor growth test.
Each sample of Table 21 was subcutaneously administered with the frequency described in Table 21 to the mouse melanoma B16F10-bearing mice prepared by the method described in Example 5 to conduct a mouse tumor growth test.
Each sample of Table 22 was subcutaneously administered with the frequency described in Table 22 to the mouse melanoma B16F10-bearing mice prepared by the method described in Example 5 to conduct a mouse tumor growth test.
Each sample of Table 23 was subcutaneously administered with the frequency described in Table 23 to the mouse melanoma B16F10-bearing mice prepared by the method described in Example 5 to conduct a mouse tumor growth test.

Setting [1] is: Example 7-4, FIG. 23, adjuvant (Sting 0.015 mg, R848 0.05 mg) with 99k HA-C6-Chol-42% / TRP2TRP1gp100-6Y 0.05 mg s.c. day 10, 14, 17, 20.

For `CCOCc1nc2c(N)nc3ccccc3c2n1CC(C)(C)O` [R848], under setting [1], the “tumor growth suppressive effect (tumor volume)” value was “high tumor growth suppressive effect”.
On the same count and under the same terms, then `Nc1nc2c(ncn2C2OC3COP(=O)(S)OC4C(COP(=O)(S)OC2C3O)OC(n2cnc3c(N)ncnc32)C4O)c(=O)[nH]1` (stereo not drawn) [Sting, 2′3′-cGAM(PS)2(Rp/Sp)], with “high tumor growth suppressive effect”.
As for polyIC, where the note is “Example 7-3, FIG. 22, adjuvant 0.05 mg with 99k HA-C6-Chol-42% / TRP2TRP1gp100-6Y 0.05 mg s.c. day 10, 14, 17, 21”, the “tumor growth suppressive effect (tumor volume)” value is “high tumor growth suppressive effect”.
